From PubChem BioAssay (NCI)
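Where inhibition never reached the appropriate level, the endpoint shown equals the highest concentration tested. Otherwise, values were interpolated linearly from a five-concentration, 48-hour dose response in 96-well plates. The concentration for 50% growth inhibition is given as GI50. Definition used: TGI = concentration required for complete inhibition of growth.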

How the values were obtained:
Test in all cases: DTP human tumour cell line panel, 48 h
KM12 colon = system: KM12 colon
UACC-257 melanoma = system: UACC-257 melanoma
M14 melanoma = system: M14 melanoma
CCRF-CEM leukemia = system: CCRF-CEM leukemia
HCC-2998 colon = system: HCC-2998 colon
SK-MEL-2 melanoma = system: SK-MEL-2 melanoma
NCI-H226 lung = system: NCI-H226 lung
OVCAR-5 ovarian = system: OVCAR-5 ovarian
NCI/ADR-RES ovarian = system: NCI/ADR-RES ovarian
PC-3 prostate = system: PC-3 prostate

| SMILES | TGI (KM12 colon) [µM] | TGI (UACC-257 melanoma) [µM] | TGI (M14 melanoma) [µM] | TGI (CCRF-CEM leukemia) [µM] | TGI (HCC-2998 colon) [µM] | TGI (SK-MEL-2 melanoma) [µM] | TGI (NCI-H226 lung) [µM] | TGI (OVCAR-5 ovarian) [µM] | GI50 (KM12 colon) [µM] | GI50 (UACC-257 melanoma) [µM] | GI50 (NCI/ADR-RES ovarian) [µM] | TGI (NCI/ADR-RES ovarian) [µM] | GI50 (SK-MEL-2 melanoma) [µM] | GI50 (PC-3 prostate) [µM] | TGI (PC-3 prostate) [µM] | GI50 (NCI-H226 lung) [µM] | GI50 (OVCAR-5 ovarian) [µM] |
| --- | --- | --- | --- | --- | --- | --- | --- | --- | --- | --- | --- | --- | --- | --- | --- | --- | --- |
| CC(C)(C)NNC(=O)/C(=C/c1ccc(Oc2ccc(Cl)c(Cl)c2)cc1)NC(=O)c1ccccc1 | > 100 | > 100 | > 100 | > 100 | > 100 | > 100 | > 100 | > 100 | – | – | – | – | – | – | – | – | – |
| CC(=O)Nc1ccc(/C=C(\NC(=O)c2ccccc2)c2nc3ccc4c(c3[nH]2)C(=O)c2ccccc2C4=O)cc1 | – | > 100 | > 100 | > 100 | > 100 | > 100 | > 100 | > 100 | – | – | – | – | – | – | – | – | – |
| COC(=O)c1c[nH]cc1CCc1c[nH]cc1C(=O)OC | > 100 | > 100 | – | > 100 | > 100 | > 100 | > 100 | > 100 | – | – | – | – | – | – | – | – | – |
| COc1ccc(OCC(=O)O)c2c1CCC(C(C)C)C2=O (stereo unspecified) | > 100 | > 100 | > 100 | > 100 | > 100 | > 100 | – | > 100 | – | – | – | – | – | – | – | – | – |
| C/C(CN1C(=O)c2ccccc2C1=O)=N\NS(=O)(=O)c1cccc([N+](=O)[O-])c1 | > 100 | > 100 | > 100 | > 100 | > 100 | > 100 | > 100 | > 100 | – | – | – | – | – | – | – | – | – |
| Cc1cc2c(cc1C)NC(=O)C(NC(=O)/C=C/c1ccccc1)C=N2 (stereo unspecified) | 55.4 | 82.9 | > 100 | 26 | > 100 | 84.4 | > 100 | > 100 | – | – | – | – | – | – | – | – | – |
| Cc1ccc(NC(=O)c2[nH]c(=S)nc(N)c2-c2ccccc2C)cc1C | > 100 | > 100 | > 100 | > 100 | – | > 100 | > 100 | > 100 | – | – | – | – | – | – | – | – | – |
| O=C(O)c1ccc(S(=O)(=O)c2ccccc2)c([N+](=O)[O-])c1 | > 100 | > 100 | > 100 | > 100 | > 100 | > 100 | > 100 | > 100 | – | – | – | – | – | – | – | – | – |
| CN(C)/[N+]([O-])=N/Oc1cc(Nc2cccc(C(=O)O)c2)c([N+](=O)[O-])cc1[N+](=O)[O-] | > 100 | > 100 | – | – | – | > 100 | > 100 | > 100 | 86.7 | > 100 | > 100 | > 100 | 36 | > 100 | > 100 | > 100 | > 100 |
| COc1cccc(N2C(=O)c3c(c4[nH]c5ccccc5c4c4ccc(C(C)(C)C)cc34)C2=O)c1 | > 100 | > 100 | > 100 | > 100 | > 100 | > 100 | > 100 | > 100 | – | – | – | – | – | – | – | – | – |
| CCCCCCCCCCCCCS(=O)(=O)O | > 100 | > 100 | > 100 | > 100 | > 100 | > 100 | > 100 | > 100 | – | – | – | – | – | – | – | – | – |
| O=C1C2C(C(=O)N1O)N(Cc1ccccc1)C(=O)N2Cc1ccccc1 (stereo unspecified) | > 100 | > 100 | > 100 | > 100 | > 100 | – | > 100 | > 100 | – | – | – | – | – | – | – | – | – |
| CC1=CC=NN2C(=O)[C@H](C)C2C1 (stereo partly specified) | > 100 | > 100 | > 100 | > 100 | > 100 | > 100 | > 100 | > 100 | – | – | – | – | – | – | – | – | – |
| CCCN1C(=O)C/C(=C\C(C)=O)Nc2ccccc21 | > 100 | – | > 100 | > 100 | > 100 | > 100 | > 100 | > 100 | – | – | – | – | – | – | – | – | – |
| CCOC(=N)CC(=O)Nc1ccc(Cl)cc1 | > 100 | > 100 | > 100 | > 100 | > 100 | > 100 | > 100 | > 100 | – | – | – | – | – | – | – | – | – |
| C/C(=N\NC(=S)N1CCCCCC1)c1nccnc1C | > 100 | 1.77 | 0.654 | – | > 100 | 50.2 | – | > 100 | – | – | – | – | – | – | – | – | – |
| CN/N=C(/Cc1occc(=O)c1O)C(=O)Nc1ccc(C)c(C)c1 | > 100 | > 100 | > 100 | > 100 | > 100 | > 100 | > 100 | > 100 | – | – | – | – | – | – | – | – | – |
| CC(C)C(C(=O)O)N(CC1(O)OCC(O)C(O)C1O)N=O (stereo unspecified) | > 100 | > 100 | > 100 | > 100 | > 100 | > 100 | – | > 100 | – | – | – | – | – | – | – | – | – |
